Data reported in ChEMBL document CHEMBL5365479, “Development of Potent and Selective Coactivator-Associated Arginine Methyltransferase 1 (CARM1) Degraders” (J Med Chem, 2023).

Tested on: MCF-10A
Assay: Cytotoxicity against human MCF-10A cells assessed as reduction in cell viability at 0.5 uM incubated for 7 days by high contrast bright field microscopic analysis
Type: toxicity, cell-based
Settings: 168 h, time 7 day

## CNCCN1CCC(c2cc(CN(C)C(=O)c3cccc(Oc4ccc(OCC(=O)N5CCC(CN6CCC(CN7CCN(CC(=O)N[C@H](C(=O)N8C[C@H](O)C[C@H]8C(=O)N[C@@H](C)c8ccc(-c9scnc9C)cc8)C(C)(C)C)CC7)CC6)CC5)cc4)c3)ccn2)CC1
  Activity: Non-Toxic
